# Target: T1, hMrgpMRGPRX2 (Homo sapiens, UniProt Q96LB1)
# T1 construct: expressed in transfected cells
# T1 sequence (Q96LB1 1-330): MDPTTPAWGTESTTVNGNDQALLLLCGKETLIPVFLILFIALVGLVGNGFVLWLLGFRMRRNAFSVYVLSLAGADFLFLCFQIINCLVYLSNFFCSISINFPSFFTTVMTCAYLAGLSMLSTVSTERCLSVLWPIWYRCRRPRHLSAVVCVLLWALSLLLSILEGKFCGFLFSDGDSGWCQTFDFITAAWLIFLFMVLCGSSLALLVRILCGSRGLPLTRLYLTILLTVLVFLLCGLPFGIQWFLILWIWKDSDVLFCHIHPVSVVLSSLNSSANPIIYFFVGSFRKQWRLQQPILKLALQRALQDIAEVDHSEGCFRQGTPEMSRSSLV
# Assay: FLIPR intracellular calcium mobilization, antagonist activity in recombinant hMrgpMRGPRX2 expressing cells
# Assay type: cell-based
# Settings: read-out: Human MrgprX2 Antagonist pIC50 (converted)
# Method in brief: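 Antagonist activity was read as inhibition of intracellular calcium mobilization (FLIPR) in recombinant cells expressing human MrgprX2. Potency was also checked in LAD-2 human mast cells with endogenous receptor, and orthologue activity in cells expressing mouse MrgprB2, mouse MrgprA1, and gerbil, Chinese hamster and cynomolgus orthologues.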
row,SMILES,IC50
1,CN(C[C@@](C)(O)C(F)(F)F)C(=O)Nc1cc(Oc2cccc(F)c2)ccn1 [Compound E160],42.7 nM
2,CCN(C[C@@H](O)C(F)(F)F)C(=O)Nc1cc(Oc2cccc(F)c2)c(F)cn1 [Compound E161],0.891 nM
3,"CCN(C[C@@H](O)C(F)(F)F)C(=O)Nc1cc(Oc2cncc(F)c2)ccn1 [Compound E162, 1-ethyl-3-[4-[(5-fluoro-3-pyridyl)oxy]-2-pyridyl]-1-[(2R)-3,3,3-trifluoro-2-hydroxy-propyl]urea]",19.1 nM
4,"CCN(C[C@@H](O)C(F)(F)F)C(=O)Nc1cc(Oc2cc(F)cc(F)c2)ccn1 [Compound E163, 3-[4-(3,5-difluorophenoxy)-2-pyridyl]-1-ethyl-1-[(2R)-3,3,3-trifluoro-2-hydroxy-propyl]urea]",0.575 nM
5,"CC(C)C(=O)Nc1ccc(-c2ccccc2)cn1 [Compound E164, 2-methyl-N-(5-phenyl-2-pyridyl)propanamide]",251 nM
6,CC(C)C(=O)Nc1ccc(-c2ccc(F)cc2)cn1 [Compound E165],1260 nM
7,CC(C)C(=O)Nc1ccc(-c2cccc(F)c2)cn1 [Compound E166],63.1 nM
8,CC(C)C(=O)Nc1ccc(-c2ccccc2F)cn1 [Compound E167],316 nM
9,CC(C)C(=O)Nc1cc(-c2ccccc2)ccn1 [Compound E168],7940 nM
10,COc1ccccc1-c1ccc(NC(=O)C(C)C)nc1 [Compound E169],2000 nM
11,CC(C)C(=O)Nc1ccc(-c2cccc(C#N)c2)cn1 [Compound E170],200 nM
12,COc1cccc(-c2ccc(NC(=O)C(C)C)nc2)c1 [Compound E171],316 nM
13,COc1ccc(-c2ccc(NC(=O)C(C)C)nc2)cc1 [Compound E172],316 nM
14,CC(C)C(=O)Nc1ccc(-c2cc(F)cc(F)c2)cn1 [Compound E173],31.6 nM
15,CC(C)C(=O)Nc1ccc(-c2cc(F)cc(C#N)c2)cn1 [Compound E174],100 nM
16,CC1(C)C(C(=O)Nc2ccc(-c3cn[nH]c3)cn2)C1(C)C [Compound E175],2510 nM
17,CC1(C)C(C(=O)Nc2ccc(-c3ccn[nH]3)cn2)C1(C)C [Compound E176],120 nM
18,"CC(C)C(=O)Nc1ccc(C2CCCC2)cn1 [Compound E177, N-(5-cyclopentyl-2-pyridyl)-2-methyl-propanamide]",6310 nM
19,"CC(C)(C#N)C(=O)Nc1ccc(-c2cc(F)cc(F)c2)cn1 [Compound E178, 2-cyano-N-[5-(3,5-difluorophenyl)-2-pyridyl]-2-methyl-propanamide]",1260 nM
20,O=C(Nc1ccc(-c2cc(F)cc(F)c2)cn1)C1CC1 [Compound E179],200 nM
21,CC1(C)CC1C(=O)Nc1ccc(-c2cc(F)cc(F)c2)cn1 (stereo not drawn) [Compound E180],12.6 nM
22,CC(C)C(=O)Nc1ccc(Cc2ccccc2)cn1 [Compound E181],6310 nM
23,CC1(C)CC1C(=O)Nc1ccc(-c2cc(F)ccc2F)cn1 (stereo not drawn) [Compound E182],25.1 nM
24,CC1(C)CC1C(=O)Nc1ccc(-c2cccc(F)c2F)cn1 (stereo not drawn) [Compound E183],19.5 nM

row,SMILES,IC50
1,CC1(C)C(C(=O)Nc2ccc(-c3cncc(F)c3)cn2)C1(C)C [Compound E184],70.8 nM
2,Cn1cc(-c2ccc(NC(=O)C3C(C)(C)C3(C)C)nc2)cn1 [Compound E185],93.3 nM
3,CC1(C)C(C(=O)Nc2ccc(C3CCOC3)cn2)C1(C)C (stereo not drawn) [Compound E186],186 nM
4,CC1(C)C(C(=O)Nc2ccc(C3=COCC3)cn2)C1(C)C [Compound E187],14.5 nM
5,CC1(C)CC1C(=O)Nc1ccc(-c2cc(F)cc(C#N)c2)cn1 (stereo not drawn) [Compound E188],50.1 nM
6,"Cn1ncc(-c2ccc(NC(=O)C3C(C)(C)C3(C)C)nc2)n1 [Compound E189, 2,2,3,3-tetramethyl-N-[5-(2-methyltriazol-4-yl)-2-pyridyl]cyclopropanecarboxamide]",1170 nM
7,"Cn1cc(-c2ccc(NC(=O)C3C(C)(C)C3(C)C)nc2)nn1 [Compound E190, 2,2,3,3-tetramethyl-N-[5-(1-methyltriazol-4-yl)-2-pyridyl]cyclopropanecarboxamide]",631 nM
8,"C[C@H](O)CN(C)C(=O)Nc1ccc(-c2cc(F)cc(F)c2)cn1 [Compound E191, 3-[5-(3,5-difluorophenyl)-2-pyridyl]-1-[(2S)-2-hydroxypropyl]-1-methyl-urea]",2510 nM
9,CCN(C[C@@H](O)C(F)(F)F)C(=O)Nc1ccc(-c2cc(F)cc(C#N)c2)cn1 [Compound E192],1200 nM
10,CN(C)C(=O)Nc1ccc(-c2cc(F)cc(F)c2)cn1 [Compound E193],6310 nM
11,CCN(C[C@@H](O)C(F)(F)F)C(=O)Nc1ccc(-c2cc(F)cc(F)c2)cn1 [Compound E194],214 nM
12,CCN(C[C@H](C)O)C(=O)Nc1ccc(-c2ccccc2)cn1 [Compound E195],5010 nM
13,CCN(C[C@@H](O)C(F)(F)F)C(=O)Nc1ccc(F)cn1 [Compound E196],851 nM
14,"CCN(C[C@@H](O)C(F)(F)F)C(=O)Nc1ccc(-c2ncco2)cn1 [Compound E197, 1-ethyl-3-(5-oxazol-2-yl-2-pyridyl)-1-[(2R)-3,3,3-trifluoro-2-hydroxy-propyl]urea]",3090 nM
15,"CC1(C)C(C(=O)Nc2ccc(-c3ncco3)cn2)C1(C)C [Compound E198, 2,2,3,3-tetramethyl-N-(5-oxazol-2-yl-2-pyridyl)cyclopropanecarboxamide]",33.9 nM
16,"CC1(C)C(C(=O)Nc2ccc(-n3cccn3)cn2)C1(C)C [Compound E199, 2,2,3,3-tetramethyl-N-(5-pyrazol-1-yl-2-pyridyl)cyclopropanecarboxamide]",33.9 nM
17,"CC1(C)C(C(=O)Nc2ccc(I)cn2)C1(C)C [Compound E200, N-(5-iodo-2-pyridyl)-2,2,3,3-tetramethyl-cyclopropanecarboxamide]",14.8 nM
18,"CN(C)c1ccc(NC(=O)C2C(C)(C)C2(C)C)nc1 [Compound E201, N-[5-(dimethylamino)-2-pyridyl]-2,2,3,3-tetramethyl-cyclopropanecarboxamide]",162 nM
19,CC(C)C(=O)Nc1ccc(Br)cn1 [Compound E202],6310 nM
20,CC1(C)C(C(=O)Nc2cc(C(F)(F)F)ccn2)C1(C)C [Compound E203],1580 nM
21,CC1(C)C(C(=O)Nc2ccc(Cl)cn2)C1(C)C [Compound E204],1.58 nM
22,CC1(C)C(C(=O)Nc2ccc(C(F)(F)F)cn2)C1(C)C [Compound E205],501 nM
23,CC1(C)C(C(=O)Nc2ccc(C#N)cn2)C1(C)C [Compound E206],251 nM
24,CC1(C)C(C(=O)Nc2cc(C#N)ccn2)C1(C)C [Compound E207],3160 nM

row,SMILES,IC50
1,CC1(C)CC1C(=O)Nc1cc(Cl)ccn1 (stereo not drawn) [Compound E208],3160 nM
2,C[C@H](C(=O)Nc1ccccn1)c1ccccc1 [Compound E209],2510 nM
3,C[C@@H](C(=O)Nc1ccccn1)c1ccccc1 [Compound E210],2000 nM
4,CC1(C)C(C(=O)Nc2ccc(F)cn2)C1(C)C [Compound E211],1.26 nM
5,COc1ccc(NC(=O)C2C(C)(C)C2(C)C)nc1 [Compound E212],20 nM
6,Cc1cnc(NC(=O)C2C(C)(C)C2(C)C)cn1 [Compound E213],1580 nM
7,CC1(C)C(C(=O)Nc2cnc(Cl)cn2)C1(C)C [Compound E214],100 nM
8,COc1cnc(NC(=O)C2C(C)(C)C2(C)C)cn1 [Compound E215],200 nM
9,CC1(C)C(C(=O)Nc2cc3c(cn2)OCCO3)C1(C)C [Compound E216],331 nM
10,"CC(C)C(=O)Nc1cnc(Oc2ccccc2)cn1 [Compound E217, 2-methyl-N-(5-phenoxypyrazin-2-yl)propanamide]",7940 nM
11,CC(C)C(=O)Nc1cnc(Oc2cc(F)cc(F)c2)cn1 [Compound E218],316 nM
12,CC1(C)CC1C(=O)Nc1cnc(Oc2cc(F)cc(F)c2)cn1 (stereo not drawn) [Compound E219],25.1 nM
13,CC1(C)C(C(=O)Nc2cnc(Oc3cc(F)cc(F)c3)cn2)C1(C)C [Compound E220],1.58 nM
14,Cn1cc(Oc2cnc(NC(=O)C3C(C)(C)C3(C)C)cn2)cn1 [Compound E221],28.8 nM
15,CC1(C)C(C(=O)Nc2cnc(Oc3cncc(F)c3)cn2)C1(C)C [Compound E222],12.6 nM
16,CC1(C)C(C(=O)Nc2cnc(Oc3cc(F)cc(C#N)c3)cn2)C1(C)C [Compound E223],31.6 nM
17,CC1(C)C(C(=O)Nc2cnc(Oc3ccc(F)c(F)c3)cn2)C1(C)C [Compound E224],3.98 nM
18,CC1(C)CC1C(=O)Nc1cnc(Oc2ccc(F)c(F)c2)cn1 (stereo not drawn) [Compound E225],63.1 nM
19,"CC1(C)CC1C(=O)Nc1cnc(-c2cc(F)ccc2F)cn1 (stereo not drawn) [Compound E226, N-[5-(2,5-difluorophenyl)pyrazin-2-yl]-2,2-dimethyl-cyclopropanecarboxamide]",34.7 nM
20,CC1(C)C(C(=O)Nc2cnc(-c3cc(F)cc(F)c3)cn2)C1(C)C [Compound E227],33.9 nM
21,"CC1(C)CC1C(=O)Nc1cnc(-c2cc(F)cc(F)c2)cn1 (stereo not drawn) [Compound E228, N-[5-(3,5-difluorophenyl)pyrazin-2-yl]-2,2-dimethyl-cyclopropanecarboxamide]",95.5 nM
22,CC1(C)CC1C(=O)Nc1cnc(-c2cccc(F)c2F)cn1 (stereo not drawn) [Compound E229],6610 nM
23,CC1(C)CC1C(=O)Nc1cnc(-c2cc(F)cc(C#N)c2)cn1 (stereo not drawn) [Compound E230],288 nM
24,"CC1(C)C(C(=O)Nc2cnc(N3CCCC3)cn2)C1(C)C [Compound E233, 2,2,3,3-tetramethyl-N-(5-pyrrolidin-1-ylpyrazin-2-yl)cyclopropanecarboxamide]",331 nM
